Holding throughout (format): biochemical
One experiment concerns the target LCK (Homo sapiens, UniProt P06239). The experiment is described as follows: Inhibition of a panel of kinases, in vitro HotSpot kinase assay: LCK. The settings on record: D-compounds panel data; 1 μM ATP; read-out: IC50 LCK.
The target in another experiment is T1, TEC (Homo sapiens, UniProt P42680).
T1 sequence (P42680 1-631): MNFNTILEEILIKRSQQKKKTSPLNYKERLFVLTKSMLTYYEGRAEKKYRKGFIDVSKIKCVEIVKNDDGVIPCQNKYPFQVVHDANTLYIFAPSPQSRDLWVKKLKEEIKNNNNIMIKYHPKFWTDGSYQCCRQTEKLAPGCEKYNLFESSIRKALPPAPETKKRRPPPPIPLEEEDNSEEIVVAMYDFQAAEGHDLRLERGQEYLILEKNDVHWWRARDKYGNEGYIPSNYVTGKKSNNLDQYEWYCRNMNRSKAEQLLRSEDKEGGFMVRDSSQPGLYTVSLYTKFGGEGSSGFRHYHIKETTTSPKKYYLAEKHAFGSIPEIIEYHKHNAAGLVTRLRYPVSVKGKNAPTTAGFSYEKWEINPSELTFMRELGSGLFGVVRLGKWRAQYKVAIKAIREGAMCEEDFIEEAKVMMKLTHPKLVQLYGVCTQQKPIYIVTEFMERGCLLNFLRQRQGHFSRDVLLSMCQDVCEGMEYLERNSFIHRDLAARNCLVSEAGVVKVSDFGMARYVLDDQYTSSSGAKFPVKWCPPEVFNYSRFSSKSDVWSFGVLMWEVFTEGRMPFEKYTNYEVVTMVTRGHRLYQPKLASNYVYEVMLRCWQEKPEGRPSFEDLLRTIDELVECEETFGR
The experiment in a line: Inhibition of a panel of kinases, in vitro HotSpot kinase assay: TEC. The settings on record: D-compounds panel data; 1 μM ATP. The method, then:
(§1) The degree of inhibition of a panel of kinases is determined using the in vitro HotSpot kinase assay (purified enzymes, ^33P-ATP, an appropriate substrate and 1 μM ATP).

A further experiment concerns the target T2, ITK (Homo sapiens, UniProt Q08881).
T2 sequence (Q08881 1-620): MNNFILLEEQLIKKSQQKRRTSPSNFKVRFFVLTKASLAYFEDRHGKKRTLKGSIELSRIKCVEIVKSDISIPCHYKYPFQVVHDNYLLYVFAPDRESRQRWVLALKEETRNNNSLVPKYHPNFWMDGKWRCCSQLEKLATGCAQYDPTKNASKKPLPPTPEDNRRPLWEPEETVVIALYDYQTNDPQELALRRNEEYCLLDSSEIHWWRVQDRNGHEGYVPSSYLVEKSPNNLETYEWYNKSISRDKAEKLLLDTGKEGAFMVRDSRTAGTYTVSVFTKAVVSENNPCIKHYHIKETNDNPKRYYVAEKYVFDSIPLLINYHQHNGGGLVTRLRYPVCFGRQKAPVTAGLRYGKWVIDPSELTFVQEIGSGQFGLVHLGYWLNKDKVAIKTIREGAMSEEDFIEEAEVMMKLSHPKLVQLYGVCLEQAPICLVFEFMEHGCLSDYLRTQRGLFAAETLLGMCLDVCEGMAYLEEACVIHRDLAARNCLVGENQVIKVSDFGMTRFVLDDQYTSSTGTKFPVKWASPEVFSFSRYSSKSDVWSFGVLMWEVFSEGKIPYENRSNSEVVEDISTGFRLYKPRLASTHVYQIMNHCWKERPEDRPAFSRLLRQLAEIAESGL
The experiment in a line: Inhibition of a panel of kinases, in vitro HotSpot kinase assay: ITK. The note with it: D-compounds panel data; 1 μM ATP. On the procedure:
as §1

The results in this text go back to patent publication US20210070748A1, “INHIBITORS OF BRUTONS TYROSINE KINASE” (Pharmacyclics LLC, priority 2015, published 2021).

SMILES strings stand for the structures.

Chain of LCK (P06239 whole entry): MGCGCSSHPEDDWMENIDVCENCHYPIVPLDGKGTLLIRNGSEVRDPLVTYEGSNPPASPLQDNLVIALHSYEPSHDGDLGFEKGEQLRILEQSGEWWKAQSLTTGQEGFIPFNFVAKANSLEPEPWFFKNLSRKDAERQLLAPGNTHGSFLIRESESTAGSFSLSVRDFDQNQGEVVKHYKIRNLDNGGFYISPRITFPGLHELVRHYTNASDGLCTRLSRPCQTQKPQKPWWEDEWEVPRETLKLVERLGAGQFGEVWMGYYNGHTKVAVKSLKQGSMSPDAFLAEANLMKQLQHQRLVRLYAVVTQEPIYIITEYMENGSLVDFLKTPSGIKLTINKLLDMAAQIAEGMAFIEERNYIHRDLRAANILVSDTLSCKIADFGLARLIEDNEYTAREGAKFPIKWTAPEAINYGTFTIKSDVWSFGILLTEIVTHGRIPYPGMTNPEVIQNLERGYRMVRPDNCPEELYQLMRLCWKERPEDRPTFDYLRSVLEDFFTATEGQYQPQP

One may read the IC50 as the concentration that gives 50% inhibition. Consider `C[C@@H]1[C@H](NC(=O)c2ccc(C3CC3)cc2)CCCN1c1cnc(C(N)=O)c(Nc2cc(CN3CCCCC3)ns2)n1` [Example D-140, 5-[(2R,3R)-3-(4-cyclopropylbenzamido)-2-methylpiperidin-1-yl]-3-{[3-(piperidin-1-ylmethyl)-1,2-thiazol-5-yl]amino}pyrazine-2-carboxamide], for which the IC50 on LCK, against TEC and against ITK was 10 to 100 nM in each case.
For the compound `C[C@@H]1[C@H](NC(=O)c2ccc(C3CC3)cc2F)CCCN1c1cnc(C(N)=O)c(Nc2ccc(S(C)(=O)=O)cc2)n1` [Example D-133, 5-[(2R,3R)-3-(4-cyclopropyl-2-fluorobenzamido)-2-methylpiperidin-1-yl]-3-[(4-methanesulfonylphenyl)amino]pyrazine-2-carboxamide], the concentration for half-maximal inhibition (IC50) on LCK, at TEC and at ITK was 100 to 1000 nM each time.
As to `C[C@@H]1CC[C@H](NC(=O)N(C)C)CN1c1cnc(C(N)=O)c(Nc2cnn(C)c2)n1` [Example D-151, 5-[(2R,5S)-5-[(dimethylcarbamoyl)amino]-2-methylpiperidin-1-yl]-3-[(1-methyl-1H-pyrazol-4-yl)amino]pyrazine-2-carboxamide], the IC50 at LCK lay in the range of 10 to 100 nM; on TEC, 10 to 100 nM; on ITK it was 1000 to 10000 nM.
As to `C[C@@H]1[C@H](NC(=O)c2ccc(C3CC3)cc2F)CCCN1c1cnc(C(N)=O)c(Nc2ccc(CN3CCN(C)CC3)cn2)n1` [Example D-132, 5-[(2R,3R)-3-(4-cyclopropyl-2-fluorobenzamido)-2-methylpiperidin-1-yl]-3-({5-[(4-methylpiperazin-1-yl)methyl]pyridin-2-yl}amino)pyrazine-2-carboxamide], the 50% inhibitory concentration (IC50) on LCK, on TEC and against ITK was 1000 to 10000 nM each time.
As for `C[C@@H]1CC[C@H](NC(=O)c2ccc(C3CC3)cc2)CN1c1cnc(C(N)=O)c(Nc2ccc(N3CCN(C)CC3)c(F)c2)n1` [Example D-149, 5-[(2R,5 S)-5-(4-cyclopropylbenzamido)-2-methylpiperidin-1-yl]-3-{[3-fluoro-4-(4-methylpiperazin-1-yl)phenyl]amino}pyrazine-2-carboxamide], the half-inhibitory concentration (IC50) on LCK, on TEC and at ITK was 100 to 1000 nM throughout.
On to `CN1CCN(Cc2ccc(Nc3nc(N4CCC[C@@H](n5ccc6cc(C7CC7)ccc6c5=O)C4)cnc3C(N)=O)cc2)CC1` [Example D-167, 5-[(3R)-3-(6-cyclopropyl-1-oxo-1,2-dihydroisoquinolin-2-yl)piperidin-1-yl]-3-({4-[(4-methylpiperazin-1-yl)methyl]phenyl}amino)pyrazine-2-carboxamide], for which the values for the IC50 at LCK, against TEC and against ITK were 100 to 1000 nM, 10 to 100 nM and 100 to 1000 nM, respectively.
As for `Cc1cc(Nc2cc(N3CCC[C@@H](NC(=O)c4ccc(C5CC5)cc4F)[C@H]3C)cnc2C(N)=O)sn1` [Example D-116, 5-[(2R,3R)-3-(4-cyclopropyl-2-fluorobenzamido)-2-methylpiperidin-1-yl]-3-[(3-methyl-1,2-thiazol-5-yl)amino]pyridine-2-carboxamide], the results for the concentration for half-maximal inhibition (IC50) at LCK, against TEC and against ITK were 10 to 100 nM, 100 to 1000 nM and 1000 to 10000 nM, respectively.
For `C[C@H]1CC[C@@H](NC(=O)c2ccc(C(C)(C)O)cc2)CN1c1nnc(C(N)=O)c(Nc2cnn(C)c2)n1` [Example D-157, 3-[(2S,5R)-5-[4-(2-hydroxypropan-2-yl)benzamido]-2-methylpiperidin-1-yl]-5-[(1-methyl-1H-pyrazol-4-yl)amino]-1,2,4-triazine-6-carboxamide] the same measures were 10 to 100 nM, no more than 10 nM and 10 to 100 nM.
Taken in the same sequence, the figures for `C[C@@H]1[C@H](NC(=O)N(C)C)CCCN1c1cnc(C(N)=O)c(Nc2cc(C3CCOCC3)ns2)n1` [Example D-162, 5-[(2R,3R)-3-[(dimethylcarbamoyl)amino]-2-methylpiperidin-1-yl]-3-{[3-(oxan-4-yl)-1,2-thiazol-5-yl]amino}pyrazine-2-carboxamide] were 10 to 100 nM, no more than 10 nM and 100 to 1000 nM.
Taken in the same sequence, the figures for `C[C@@H]1[C@H](NC(=O)c2ccc(C3CC3)cc2)CCCN1c1cnc(C(N)=O)c(Nc2ccc(OC3CCN(C4CCCC4)CC3)cc2)n1` [Example D-101, 3-({4-[(1-cyclopentylpiperidin-4-yl)oxy]phenyl}amino)-5-[(2R,3R)-3-(4-cyclopropylbenzamido)-2-methylpiperidin-1-yl]pyrazine-2-carboxamide] were 10 to 100 nM, no more than 10 nM and 10 to 100 nM.
Take `Cc1ccc(-c2cnc([C@@H]3CCCN(c4cnc(C(N)=O)c(Nc5cc(C)ns5)n4)C3)[nH]2)cc1` [Example D-137, 3-[(3-methyl-1,2-thiazol-5-yl)amino]-5-[(3R)-3-[5-(4-methylphenyl)-1H-imidazol-2-yl]piperidin-1-yl]pyrazine-2-carboxamide]: the IC50 at LCK was 1000 to 10000 nM; at TEC, 1000 to 10000 nM; on ITK, greater than 10000 nM.
With `C[C@@H]1[C@H](NC(=O)c2ccc(C3CC3)cc2F)CCCN1c1cnc(C(N)=O)c(Nc2cc(CN(C)C)ns2)n1` [Example D-122, 5-[(2R,3R)-3-(4-cyclopropyl-2-fluorobenzamido)-2-methylpiperidin-1-yl]-3-({3-[(dimethylamino)methyl]-1,2-thiazol-5-yl}amino)pyrazine-2-carboxamide], the values for the IC50 at LCK, against TEC and at ITK were 10 to 100 nM, 10 to 100 nM and 100 to 1000 nM, respectively.
With `C[C@@H]1[C@H](NC(=O)c2ccc(C(C)(C)O)c(F)c2)CCCN1c1cnc(C(N)=O)c(Nc2cnn(C)c2)n1` [Example D-160, 5-[(2R,3R)-3-[3-fluoro-4-(2-hydroxypropan-2-yl)benzamido]-2-methylpiperidin-1-yl]-3-[(1-methyl-1H-pyrazol-4-yl)amino]pyrazine-2-carboxamide], the half-maximal inhibitory concentration (IC50) on LCK is 10 to 100 nM; on TEC, no more than 10 nM; at ITK it was 100 to 1000 nM.
For `C[C@H]1CC[C@@H](NC(=O)c2ccc(C3CC3)cc2)CN1c1cnc(C(N)=O)c(Nc2ccc(N3CCN(C)CC3)c(F)c2)n1` [Example D-150, 5-[(2S,5R)-5-(4-cyclopropylbenzamido)-2-methylpiperidin-1-yl]-3-{[3-fluoro-4-(4-methylpiperazin-1-yl)phenyl]amino}pyrazine-2-carboxamide] the same measures were 10 to 100 nM, no more than 10 nM and 100 to 1000 nM.
For `CNC(=O)N[C@@H]1CCCN(c2cnc(C(N)=O)c(Nc3cnn(C)c3)n2)[C@@H]1C` [Example D-109, 3-[(1-methyl-1H-pyrazol-4-yl)amino]-5-[(2R,3R)-2-methyl-3-[(methylcarbamoyl)amino]piperidin-1-yl]pyrazine-2-carboxamide], the figures for the half-inhibitory concentration (IC50) on LCK, against TEC and against ITK were 100 to 1000 nM, 10 to 100 nM and 100 to 1000 nM, respectively.
As for `COC(C)(C)c1ccc(C(=O)N[C@@H]2CCCN(c3cnc(C(N)=O)c(Nc4cnn(C)c4)n3)[C@@H]2C)cc1` [Example D-161, 5-[(2R,3R)-3-[4-(2-methoxypropan-2-yl)benzamido]-2-methylpiperidin-1-yl]-3-[(1-methyl-1H-pyrazol-4-yl)amino]pyrazine-2-carboxamide], the IC50 on LCK is 100 to 1000 nM; at TEC, no more than 10 nM; against ITK, 100 to 1000 nM.
